# Starred links: 1 amine or outer side, 2 acyl side, 3 side chain; linkers in the order of their positions; H or OH if unused. Positions of bridges follow the written chain, without caps; N, C: chain ends. Non-standard residues stand in square brackets, D forms with d. Residues, ends and D or L forms follow the SMILES beside them. *: point of attachment. X19 = CC(C)[C@@H](C(=O)C[C@H](C(=O)[*:2])[C@@H](C)O)N(C)[*:1]; NMeAbu(3,3-F2-piperidino) = CN[C@@H](CCN1CCCC(F)(F)C1)C(=O)O; Glu(NHSO2Me) = CS(=O)(=O)NC(=O)CC[C@H](N)C(=O)O; 3Pal(6-NMe2) = CN(C)c1ccc(C[C@H](N)C(=O)O)cn1; Tyr(3-F) = N[C@@H](Cc1ccc(O)c(F)c1)C(=O)O; X8 = O=C(CN(CCN1CCC(F)(F)CC1)[*:1])[*:2]; Hyp = O=C(O)[C@@H]1C[C@@H](O)CN1; NMeF = CN[C@@H](Cc1ccccc1)C(=O)O; NMeGABA = CN(CCCC(=O)[*:2])[*:1]; NMeI = CC[C@H](C)[C@H](NC)C(=O)O; NMeD = CN[C@@H](CC(=O)O)C(=O)O; NMeL = CN[C@@H](CC(C)C)C(=O)O; NMeV = CN[C@H](C(=O)O)C(C)C; NMeAbu = CC[C@H](NC)C(=O)O; NMeS = CN[C@@H](CO)C(=O)O; Pip = O=C(O)[C@@H]1CCCCN1; NMeA = CN[C@@H](C)C(=O)O; Piperidide = C1CCN(*)CC1; dNMeA = CN[C@H](C)C(=O)O; NBuGly = CCCCNCC(=O)O; Isopentyl = CC(C)CC*; Sar = CNCC(=O)O; tBu = CC(C)(C)*; Propyl = CCC*
# Test: Caco-2 membrane permeability, improved method as used in the following Examples (96-well, 20 to 24 h preincubation)
# Type: in vitro ADME
# Details: human, Caco-2, Caco-2
# Method in brief: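 Papp (cm/sec) was derived from LC/MS of basal samples collected 180 min after apical dosing in FaSSIF/HBSS pH 6.0 with 1% DMSO, against a basal HBSS pH 7.4 receiver containing 4% BSA. Three-week Caco-2 cultures were first preincubated with compound in DMEM+FaSSIF at 37 °C for 20–24 h.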
row,Compound,Papp A→B at 180 min
1,CC[C@H]1C(=O)N[C@@H]([C@@H](C)O)C(=O)N(C)CC(=O)N(C)[C@@H](COCCC(C)C)C(=O)N[C@@H](CC(C)C)C(=O)N(C)[C@@H](Cc2ccccc2)C(=O)N(C)[C@@H](CC(C)C)C(=O)N[C@H](C(=O)N2CCCCC2)CC(=O)N[C@H](C(C)C)C(=O)N(C)[C@@H](Cc2ccccc2)C(=O)N[C@@H](CC(C)C)C(=O)N1C [pd306] ([dV][NMeF]L[NMeAbu]T[Sar][NMeS](Isopentyl)L[NMeF][NMeL]D-Piperidide; lactam N-11),1.2 ×10⁻⁶ cm/s
2,CC(C)C[C@@H]1NC(=O)[C@H](Cc2ccccc2)N(C)C(=O)[C@H](CC(C)C)N(C)C(=O)[C@H](CC(C)C)NC(=O)[C@H](C)N(C)C(=O)C[C@@H](C(=O)N2CCCCC2)NC(=O)[C@H](CC(C)C)N(C)C(=O)CN(C)C(=O)[C@H]([C@@H](C)O)NC(=O)CN(CCN2CCC(F)(F)CC2)C(=O)[C@H](Cc2ccccc2)N(C)C1=O [pd456] ([NMeA]L[NMeL][NMeF]L[NMeF][X8]T[Sar][NMeL]D-Piperidide; lactam N-11),5 ×10⁻⁶ cm/s
3,CCCOC[C@@H]1NC(=O)[C@H](Cc2ccccc2)N(C)C(=O)[C@H](Cc2ccccc2)N(C)C(=O)[C@H](C(C)C)NC(=O)[C@H](CC(C)C)N(C)C(=O)CCCN(C)C(=O)C[C@@H](C(=O)N2CCCCC2)NC(=O)[C@H](CC(C)C)N(C)C(=O)[C@H](CC(C)C)N(C)C(=O)[C@H]([C@@H](C)O)NC(=O)[C@H](CC(C)C)N(C)C1=O [pd328] ([NMeGABA][NMeL]V[NMeF][NMeF]S(Propyl)[NMeL]T[NMeL][NMeL]D-Piperidide; lactam N-11),2.3 ×10⁻⁶ cm/s
4,CC(C)CCOC[C@@H]1NC(=O)[C@H](CC(C)C)N(C)C(=O)CCCN(C)C(=O)C[C@@H](C(=O)N2CCCCC2)NC(=O)[C@H](CC(C)C)N(C)C(=O)[C@H](C)N(C)C(=O)[C@H]([C@@H](C)O)NC(=O)[C@H](CC(C)C)N(C)C(=O)[C@H](COC(C)(C)C)NC(=O)[C@H](Cc2ccccc2)N(C)C(=O)[C@H](Cc2ccccc2)N(C)C1=O [pd303] ([NMeGABA][NMeL]S(Isopentyl)[NMeF][NMeF]S(tBu)[NMeL]T[NMeA][NMeL]D-Piperidide; lactam N-11),1 ×10⁻⁶ cm/s
5,CC[C@H](C)[C@H]1C(=O)N[C@@H]([C@@H](C)O)C(=O)N(C)CC(=O)N(C)[C@@H](C)C(=O)N[C@H](C(=O)N2CCCCC2)CC(=O)N(C)[C@@H](C)C(=O)N[C@@H](C(C)C)C(=O)N(C)[C@@H](CC(C)C)C(=O)N(C)[C@@H](Cc2ccccc2)C(=O)NC(COc2cccc(Cl)c2)C(=O)N(C)[C@@H](Cc2ccccc2)C(=O)N1C (stereo partly drawn) [pd345],1.8 ×10⁻⁶ cm/s
6,CCCCN1CC(=O)N(C)[C@@H](C(C)C)C(=O)N[C@H](C(=O)N2CCCCC2)CC(=O)N(C)[C@@H](CC)C(=O)N[C@@H](CC(C)C)C(=O)N(C)[C@@H](CC(C)C)C(=O)N(C)[C@@H](Cc2ccccc2)C(=O)N[C@@H](CCC(=O)NS(C)(=O)=O)C(=O)N(C)[C@@H](Cc2ccccc2)C(=O)N(C)[C@@H](CC(C)C)C(=O)N[C@@H](CC(C)C)C1=O [pd69] ([NMeAbu]L[NMeL][NMeF][Glu(NHSO2Me)][NMeF][NMeL]L[NBuGly][NMeV]D-Piperidide; lactam N-11),< 0.14 ×10⁻⁶ cm/s
7,CC(C)C[C@@H]1NC(=O)[C@H](CC(C)C)N(C)C(=O)CCCN(C)C(=O)C[C@@H](C(=O)N2CCCCC2)NC(=O)[C@H](CC(C)C)N(C)C(=O)[C@H](CC(C)C)N(C)C(=O)[C@H]([C@@H](C)O)NC(=O)[C@H](CC(C)C)N(C)C(=O)[C@H](Cc2ccc(N(C)C)nc2)NC(=O)[C@H](Cc2ccccc2)N(C)C(=O)[C@H](CC(C)C)N(C)C1=O [pd397] ([NMeGABA][NMeL]L[NMeL][NMeF][3Pal(6-NMe2)][NMeL]T[NMeL][NMeL]D-Piperidide; lactam N-11),1.2 ×10⁻⁶ cm/s
8,CCO[C@@H]1C[C@H]2C(=O)N(C)[C@@H](CC(C)C)C(=O)N[C@@H]([C@@H](C)O)C(=O)N(C)[C@@H](Cc3ccccc3)C(=O)N[C@@H](Cc3ccccc3)C(=O)N(C)[C@@H](CC(C)C)C(=O)N[C@H](C(=O)N3CCCCC3)CC(=O)N[C@H](CC(C)C)C(=O)N3CCC[C@H]3C(=O)N[C@@H](COC(C)(C)C)C(=O)N(C)[C@@H](CC(C)C)C(=O)N2C1 [pd372] ([dL]PS(tBu)[NMeL][Hyp](Et)[NMeL]T[NMeF]F[NMeL]D-Piperidide; lactam N-11),1.4 ×10⁻⁶ cm/s
9,CCO[C@@H]1C[C@H]2C(=O)N3CCCC[C@H]3C(=O)N[C@@H](COC(C)(C)C)C(=O)N(C)[C@@H](CC(C)C)C(=O)N[C@@H]([C@@H](C)O)C(=O)N(C)[C@@H](CC(C)C)C(=O)N(C)[C@@H](CC(C)C)C(=O)N(C)[C@@H](CC(C)C)C(=O)N[C@H](C(=O)N3CCCCC3)CC(=O)N[C@H](C(C)C)C(=O)N(C)[C@@H]([C@@H](C)CC)C(=O)N2C1 [pd383] ([dV][NMeI][Hyp](Et)[Pip]S(tBu)[NMeL]T[NMeL][NMeL][NMeL]D-Piperidide; lactam N-11),2.8 ×10⁻⁶ cm/s
10,CC(=O)NCCCC[C@@H]1NC(=O)[C@H](CC(C)C)N(C)C(=O)[C@H](CC(C)C)NC(=O)[C@H](Cc2ccccc2)N(C)C(=O)[C@@H](C(C)C)NC(=O)C[C@@H](C(=O)N2CCCCC2)NC(=O)[C@H](C(C)C)N(C)C(=O)[C@H](Cc2ccccc2)N(C)C(=O)[C@H](COC(C)(C)C)NC(=O)[C@H](CC(C)C)N(C)C(=O)CN(C)C1=O [pd470] ([dV][NMeF]L[NMeL]K(Ac)[Sar][NMeL]S(tBu)[NMeF][NMeV]D-Piperidide; lactam N-11),2.1 ×10⁻⁶ cm/s
11,"CCCCN1CC(=O)N(C)[C@@H](CC(C)C)C(=O)N[C@@H](COC(C)(C)C)C(=O)N(C)[C@@H](Cc2ccccc2)C(=O)N(C)[C@@H](C(C)C)C(=O)N[C@H](C(=O)N2CCCCC2)CC(=O)N[C@H](C)C(=O)N(C)[C@@H](Cc2ccccc2)C(=O)N[C@@H](CC(C)C)C(=O)N(C)[C@@H](CCN2CCCC(F)(F)C2)C(=O)N[C@@H]([C@@H](C)O)C1=O [pd386] ([dA][NMeF]L[NMeAbu(3,3-F2-piperidino)]T[NBuGly][NMeL]S(tBu)[NMeF][NMeV]D-Piperidide; lactam N-11)",2.3 ×10⁻⁶ cm/s
12,CC[C@H](C)[C@H]1C(=O)N[C@@H]([C@@H](C)O)C(=O)N(C)CC(=O)N(C)[C@@H](CC(C)C)C(=O)N[C@H](C(=O)N2CCCCC2)CC(=O)N(C)[C@@H](C)C(=O)N[C@@H](CC(C)C)C(=O)N(C)[C@@H](CC(C)C)C(=O)N(C)[C@@H](C)C(=O)N[C@@H](COc2ccccc2Cl)C(=O)N(C)[C@@H](Cc2ccccc2)C(=O)N1C [pd341],1.4 ×10⁻⁶ cm/s

# Same assay, conditions: human, Caco-2, Caco-2 (cm/sec)
row,Compound,Papp A→B at 180 min
1,CC[C@H](C)[C@@H]1NC(=O)[C@H](CC(C)C)N(C)C(=O)CCCN(C)C(=O)C[C@@H](C(=O)N2CCCCC2)NC(=O)[C@H](CC(C)C)N(C)C(=O)[C@H](C)N(C)C(=O)[C@H]([C@@H](C)O)NC(=O)[C@H](CC(C)C)N(C)C(=O)[C@H](Cc2ccc(O)c(F)c2)NC(=O)[C@H](CC(C)C)N(C)C(=O)[C@H](Cc2ccccc2)N(C)C1=O [pd119] ([NMeGABA][NMeL]I[NMeF][NMeL][Tyr(3-F)][NMeL]T[NMeA][NMeL]D-Piperidide; lactam N-11),0.16 ×10⁻⁶ cm/s
2,CC(C)C[C@@H]1NC(=O)[C@H](Cc2ccccc2)N(C)C(=O)[C@@H](C)N(C)C(=O)C[C@@H](C(=O)N2CCCCC2)N(C)C(=O)[C@H](Cc2ccccc2)N(C)C(=O)[C@H](Cc2ccccc2)N(C)C(=O)[C@H](COC(C)(C)C)NC(=O)[C@H](C(C)C)N(C)C(=O)CN(C)C(=O)[C@H]([C@@H](C)O)NC(=O)[C@H](CC(C)C)N(C)C1=O [pd199] ([dNMeA][NMeF]L[NMeL]T[Sar][NMeV]S(tBu)[NMeF][NMeF][NMeD]-Piperidide; lactam N-11),2.6 ×10⁻⁶ cm/s
3,CC(C)C[C@@H]1NC(=O)[C@H](CC(C)C)N(C)C(=O)[C@H](C)N(C)C(=O)[C@@H](C(C)C)NC(=O)C[C@@H](C(=O)N2CCCCC2)NC(=O)[C@H]([C@@H](C)O)NC(=O)[C@H](C)N(C)C(=O)[C@H](C)N(C)C(=O)[C@H](CC(C)C)N(C)C(=O)[C@H](Cc2ccc(O)c(F)c2)NC(=O)[C@H](Cc2ccccc2)N(C)C1=O [pd113] ([dV][NMeA][NMeL]L[NMeF][Tyr(3-F)][NMeL][NMeA][NMeA]TD-Piperidide; lactam N-11),0.029 ×10⁻⁶ cm/s
4,CC[C@H](C)[C@@H]1NC(=O)[C@H](CC(C)C)N(C)C(=O)CN(C)C(=O)C[C@@H](C(=O)N2CCCCC2)NC(=O)[C@H](C)N(C)C(=O)[C@H](COC(C)(C)C)NC(=O)[C@H](CC(C)C)N(C)C(=O)[C@H](CC(C)C)N(C)C(=O)CN(C)C(=O)[C@H](Cc2c[nH]c3ccccc23)NC(=O)[C@H](CC(C)C)N(C)C1=O [pd103] ([Sar][NMeL]I[NMeL]W[Sar][NMeL][NMeL]S(tBu)[NMeA]D-Piperidide; lactam N-11),0.093 ×10⁻⁶ cm/s
5,CC(C)C[C@@H]1NC(=O)[C@H](Cc2ccccc2)N(C)C(=O)[C@H](COC(C)(C)C)NC(=O)[C@H](Cc2ccccc2)N(C)C(=O)[C@H](C)N(C)C(=O)[C@H](CC(C)C)N(C)C(=O)[C@H](C)N(C)C(=O)C[C@@H](C(=O)N2CCCCC2)N(C)C(=O)[C@H](Cc2ccccc2)N(C)C(=O)[C@H]([C@@H](C)O)CC(=O)[C@H](C(C)C)N(C)C1=O [pd213] ([NMeA][NMeL][NMeA][NMeF]S(tBu)[NMeF]L[X19][NMeF][NMeD]-Piperidide; lactam N-10),1.3 ×10⁻⁶ cm/s

# Same assay, conditions: human; Papp, Caco-2 membrane permeability, improved method; read-out: Caco-2
row,Compound,Papp A→B at 180 min
1,CNC(=O)CC[C@@H]1NC(=O)[C@H](CC(C)C)N(C)C(=O)[C@H](C(C)C)N(C)C(=O)[C@H](Cc2ccccc2)NC(=O)[C@H](Cc2ccccc2)N(C)C(=O)[C@H](CC(C)C)N(C)C(=O)[C@H](CC(C)C)NC(=O)[C@H](CC(C)C)N(C)C(=O)C[C@@H](C(=O)N2CCCCC2)NC(=O)[C@H](CC(C)C)N(C)C(=O)CN(C)C1=O [pd463] ([NMeL]L[NMeL][NMeF]F[NMeV][NMeL]E(NHMe)[Sar][NMeL]D-Piperidide; lactam N-11),1.2 ×10⁻⁶ cm/s

# From patent US20200131669A1, “CYCLIC PEPTIDE COMPOUND HAVING HIGH MEMBRANE PERMEABILITY, AND LIBRARY CONTAINING SAME” (Chugai Seiyaku Kabushiki Kaisha, priority 2017, published 2020)
